In patent publication US8143241B2, “DNA damage repair inhibitors for treatment of cancer” (Kudos Pharmaceuticals Limited, priority 2003, dated 2012):

What was measured:
[1] = test system: HeLa cells; experiment: Cell viability, HeLa cells exposed to PARP inhibitor and caffeine; details: 1 mM Caffeine plus KU0058684
Source text: Error bars represent standard errors of the mean.
Caffiene was used to determine whether loss of ATM and ATR dependent DNA signalling pathways would induce sensitivity to PARP inhibition.

[2] = test system: HT29 cells; experiment: SRB cell growth assay, ATM/PARP inhibitor combination; format: cell-based; details: KU-0059436 plus KU-60019
Procedure: (§1) Cell growth was assessed using the sulforhodamine B (SRB) assay (Skehan, P. et al (1990) J. Natl. Cancer Inst. 82, 1107-1112) 2,000 cells were seeded into each well of a flat-bottomed 96-well microtiter plate in a volume of […] and incubated for 6 hours at 37° C. Cells were either replaced with media alone or with media containing PARP inhibitor or ATM inhibitor or both at a range of concentrations shown. Cells were then allowed to grow for a further 96 hours after which the media was removed and the cells fixed with […] of ice cold 10% (w/v) trichloroacetic acid. The plates were incubated at 4° C. for 20 minutes and then washed four times with water. Each well of cells was then stained with […] of 0.4% (w/v) SRB in 1% acetic acid for 20 minutes before washing four times with 1% acetic acid. Plates were then dried for 2 hours at room temperature. The dye from the stained cells was solubilized by the addition of […] of 10 mM Tris Base into each well. Plates were gently shaken and left at room temperature for 30 minutes before measuring the optical density at 564 nm on a Microquant microtiter plate reader.

[3] = test system: NBS1−/− fibroblast cells; experiment: SRB cell growth assay, NBS1 deficient fibroblasts vs MRC5; format: cell-based
Procedure: as §1

[4] = test system: FT/pEBS7 ATM−/− cells; experiment: SRB cell growth assay, ATM deficient vs complemented cells; format: cell-based; details: FT/pEBS7 ATM−/− vs FT/pEBS7-Y25 ATM+/+
Procedure: as §1

[5] = test system: Fancd2−/−, Fanca−/−, Fancc−/− and Fanca−/−c−/− fibroblasts; experiment: Clonogenic survival, Fanconi anaemia mouse fibroblasts; format: cell-based; details: continuous exposure 12-14 days
Procedure: Mouse fibroblasts from wild-type, Fancd2^−/−, Fanca^−/−, Fancc^−/− and Fanca^−/−c^−/− animals were obtained from the Fanconi Anaemia Cell Repository, Oregon Health and Science University. These cells were maintained in DMEM, supplemented with FCS (10% v/v), glutamine and antibiotics. RAD54 and RAD52 Embryonic Stem (ES) cells were grown in DMEM, supplemented with FCS (15% v/v), glutamine, antibiotics, non-essential amino acids, 2-mercaptoethanol and Leukemia inhibitory Factor. HeLa cells (CCL-2) were obtained from ATCC (USA) and were maintained in DMEM, supplemented with FCS (10% v/v), glutamine and antibiotics.
(§2) For measurement of sensitivity to chemical inhibitors, cell cultures e.g. ES cells or mouse embryonic fibroblasts, in exponential growth were trypsinised and seeded at various densities in 6-well plates onto confluent monolayer of Mitomycin C (MMC) inactivated mouse embryonic fibroblasts and, where appropriate, treated with inhibitors after 18 h. For continuous exposure, cells were re-fed every 4 days with fresh medium and inhibitor. For timed exposures, inhibitor was added for the specified period then cells were washed and re-fed with fresh medium. After 10-14 days, cells were washed with PBS, fixed in methanol and stained with crystal violet. Colonies containing greater than approximately 50 cells were counted. Experiments were performed at least three times in triplicate.

[6] = test system: Rad52 deficient ES cells; experiment: Clonogenic survival, Rad52 deficient ES cells; format: cell-based
Procedure: as §2

[7] = test system: HeLa cells with BRCA1, BRCA2 and RAD51 silencing; experiment: Cell viability, HeLa cells with BRCA1, BRCA2 or RAD51 silencing; format: cell-based, human; details: five days
Procedure: (§3) For cell viability assays, HeLa cells were co-transfected with pSUPER and pEFBsd in 96 well plates using FuGene (Roche, USA) according to the manufacturers instructions. Twenty-four hours after transfection, cells were plated into replica plates and this was followed by treatment with PARP inhibitors and blasticidin 48 hours post transfection. Media containing PARP inhibitors and blasticidin was replenished five days post-transfection and cell viability was measured at seven days using the 96 well plate CellTitre-Glo™ Luminescent Cell Viability Assay kit (Promega, USA, according to the manufacturers instructions).

[8] = test system: Brca1 deficient ES cells; experiment: Clonogenic assay, continuous exposure, Brca1 deficient ES cells; format: cell-based, mouse
Procedure: as §2

[9] = test system: Brca2 deficient ES cells; experiment: Clonogenic assay, continuous exposure, Brca2 deficient ES cells; format: cell-based, mouse
Procedure: as §2

[10] = test system: RAD51 siRNA transfected HeLa cells; experiment: Clonogenic survival, HeLa cells with RAD51 RNAi silencing; format: cell-based, human; details: continuous treatment
Source text: Clonogenic survival curves of transfected HeLa cells under constant exposure to a range of concentrations of PARP inhibitor (KU0058684) for 12-14 days. […] SF50 for pSUPER-CFP-CONTROL transfected cells is >1×10^−5 M and is 1×10^−6 M for pSUPER-CFP-17/19/23 transfected cells.
HeLa cells were transfected using FuGene (Roche, USA) according to the manufacturers instructions. For clonogenic survival assays, cells were co-transfected in 6 well plates with pSUPER and a vector expressing blasticidin resistance (pEF-Bsd, Invitrogen, USA) at a ratio of 10:1 (pSUPER: pEF-Bsd). Twenty-four hours after transfection, cells were plated into replica plates and this was followed by treatment with PARP inhibitors and blasticidin 48 hours post transfection.

[11] = test system: tankyrase; details: at concentrations up to 1 μM
[12] = molecular target: PARP-2 (Homo sapiens, UniProt Q9UGN5); experiment: Inhibition of poly(ADP-ribose) polymerase activity of PARP-2; format: biochemical
[13] = test system: HeLa cells transfected with DSS1 and RPA siRNA plasmids; experiment: Cell viability, HeLa cells transfected with DSS1 and RPA siRNA plasmids; format: cell-based, human
Procedure: as §3

[14] = test system: HeLa cells transfected with ATM, ATR, CHK1 or CHK2 silencing RNAi; experiment: Cell viability, HeLa cells transfected with ATM, ATR, CHK1 or CHK2 silencing RNAi; format: cell-based, human; details: five days
Procedure: as §3

[15] = molecular target: vault PARP (Homo sapiens, UniProt Q9UKK3); experiment: Selectivity: vault PARP inhibition; format: biochemical; details: at concentrations up to 1 μM
[16] = molecular target: PARP-3 (Homo sapiens, UniProt Q9Y6F1); experiment: Selectivity: PARP-3 inhibition; format: biochemical; details: at concentrations up to 1 μM
Chain of PARP-3 (Q9Y6F1 whole entry, species assumed): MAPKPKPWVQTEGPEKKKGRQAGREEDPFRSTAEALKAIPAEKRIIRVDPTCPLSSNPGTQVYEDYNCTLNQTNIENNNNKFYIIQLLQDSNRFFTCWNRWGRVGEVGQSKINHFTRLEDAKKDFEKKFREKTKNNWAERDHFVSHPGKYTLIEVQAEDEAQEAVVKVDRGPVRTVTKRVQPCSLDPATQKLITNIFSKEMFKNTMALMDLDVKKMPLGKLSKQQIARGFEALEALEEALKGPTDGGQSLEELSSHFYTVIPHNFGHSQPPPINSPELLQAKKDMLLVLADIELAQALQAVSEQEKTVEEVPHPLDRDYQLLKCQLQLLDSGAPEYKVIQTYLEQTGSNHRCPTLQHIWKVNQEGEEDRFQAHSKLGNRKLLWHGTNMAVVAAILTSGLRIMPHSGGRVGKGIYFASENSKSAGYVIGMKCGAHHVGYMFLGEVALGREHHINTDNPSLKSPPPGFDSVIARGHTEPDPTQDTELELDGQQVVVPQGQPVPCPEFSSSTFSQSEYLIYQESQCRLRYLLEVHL

Chain of vault PARP (Q9UKK3 whole entry): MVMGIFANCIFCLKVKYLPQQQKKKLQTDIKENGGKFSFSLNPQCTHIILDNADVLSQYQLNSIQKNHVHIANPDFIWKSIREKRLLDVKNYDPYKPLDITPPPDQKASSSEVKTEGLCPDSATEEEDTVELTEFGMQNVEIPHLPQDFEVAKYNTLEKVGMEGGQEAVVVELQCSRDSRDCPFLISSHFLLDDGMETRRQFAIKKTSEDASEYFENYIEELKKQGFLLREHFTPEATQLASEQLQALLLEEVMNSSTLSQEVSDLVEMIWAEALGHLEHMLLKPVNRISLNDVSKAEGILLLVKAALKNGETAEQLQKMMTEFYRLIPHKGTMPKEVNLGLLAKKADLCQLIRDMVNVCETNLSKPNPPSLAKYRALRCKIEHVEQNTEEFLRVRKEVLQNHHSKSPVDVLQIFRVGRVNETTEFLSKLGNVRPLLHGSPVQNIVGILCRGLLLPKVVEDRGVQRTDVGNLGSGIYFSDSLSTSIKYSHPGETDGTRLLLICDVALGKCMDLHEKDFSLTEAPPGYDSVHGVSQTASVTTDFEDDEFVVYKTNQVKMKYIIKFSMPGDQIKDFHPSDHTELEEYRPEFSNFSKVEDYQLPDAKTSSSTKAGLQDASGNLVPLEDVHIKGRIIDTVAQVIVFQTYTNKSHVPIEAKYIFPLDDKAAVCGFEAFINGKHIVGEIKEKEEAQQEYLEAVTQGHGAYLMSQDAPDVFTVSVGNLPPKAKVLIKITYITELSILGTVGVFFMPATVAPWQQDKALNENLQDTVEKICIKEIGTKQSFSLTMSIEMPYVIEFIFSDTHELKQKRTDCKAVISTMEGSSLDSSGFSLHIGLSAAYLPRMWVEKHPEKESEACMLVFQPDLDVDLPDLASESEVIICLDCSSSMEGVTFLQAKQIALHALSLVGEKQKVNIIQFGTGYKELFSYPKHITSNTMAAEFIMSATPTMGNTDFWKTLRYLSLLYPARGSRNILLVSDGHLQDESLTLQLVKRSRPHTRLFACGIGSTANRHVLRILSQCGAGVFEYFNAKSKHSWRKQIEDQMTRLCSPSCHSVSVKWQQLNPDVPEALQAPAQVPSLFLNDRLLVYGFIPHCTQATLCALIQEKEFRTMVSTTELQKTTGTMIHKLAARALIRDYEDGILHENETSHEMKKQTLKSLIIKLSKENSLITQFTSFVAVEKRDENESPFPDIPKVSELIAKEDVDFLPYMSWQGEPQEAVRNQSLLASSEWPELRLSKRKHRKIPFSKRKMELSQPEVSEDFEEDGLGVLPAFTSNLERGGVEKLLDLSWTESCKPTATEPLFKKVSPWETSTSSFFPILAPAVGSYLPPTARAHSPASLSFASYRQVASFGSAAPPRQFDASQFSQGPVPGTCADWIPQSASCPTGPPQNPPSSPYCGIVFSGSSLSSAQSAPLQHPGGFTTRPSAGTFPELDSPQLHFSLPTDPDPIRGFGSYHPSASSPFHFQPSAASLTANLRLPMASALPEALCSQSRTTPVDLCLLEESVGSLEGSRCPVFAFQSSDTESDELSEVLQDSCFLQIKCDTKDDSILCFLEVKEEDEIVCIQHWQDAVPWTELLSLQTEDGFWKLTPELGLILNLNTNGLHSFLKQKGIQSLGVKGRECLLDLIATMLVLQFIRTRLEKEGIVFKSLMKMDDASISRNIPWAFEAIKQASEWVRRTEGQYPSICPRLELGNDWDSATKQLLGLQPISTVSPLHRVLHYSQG
Chain of PARP-2 (Q9UGN5 whole entry): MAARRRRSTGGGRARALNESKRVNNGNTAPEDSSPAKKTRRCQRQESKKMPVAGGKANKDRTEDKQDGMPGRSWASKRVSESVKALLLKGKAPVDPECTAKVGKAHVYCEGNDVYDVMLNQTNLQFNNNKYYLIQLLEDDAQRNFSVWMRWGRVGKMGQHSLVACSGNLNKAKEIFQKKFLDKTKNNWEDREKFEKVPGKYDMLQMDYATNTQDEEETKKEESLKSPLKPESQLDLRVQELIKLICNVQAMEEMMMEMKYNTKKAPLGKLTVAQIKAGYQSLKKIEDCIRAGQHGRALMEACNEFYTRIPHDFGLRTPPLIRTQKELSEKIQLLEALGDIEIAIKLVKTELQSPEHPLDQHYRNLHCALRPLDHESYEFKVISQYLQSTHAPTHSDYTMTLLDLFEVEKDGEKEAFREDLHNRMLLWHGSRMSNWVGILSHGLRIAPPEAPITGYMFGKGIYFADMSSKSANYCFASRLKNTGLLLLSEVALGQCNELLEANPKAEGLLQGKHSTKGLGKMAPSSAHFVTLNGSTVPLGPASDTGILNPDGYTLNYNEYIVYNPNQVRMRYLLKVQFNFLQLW

Cn1c(=O)c2c(ncn2C)n(C)c1=O [Caffeine, reference compound]
sensitivity of HeLa cells to PARP inhibitor with caffeine [1]: increased sensitivity

C[C@@H]1CN(CC(=O)Nc2ccc3c(c2)Cc2cccc(-c4cc(=O)cc(N5CCOCC5)o4)c2S3)C[C@H](C)O1 [KU-60019, reference compound]
sensitivity to PARP inhibition with ATM inhibitor combination [2]: Sensitivity to PARP inhibition was observed to increase with increasing concentrations of ATMI

O=C(c1cc(Cc2n[nH]c(=O)c3ccccc23)ccc1F)N1CCN(C(=O)C2CC2)CC1 [KU0059436]
sensitivity of NBS1 deficient cells compared to wild-type cells [3]: more sensitive
sensitivity to PARP inhibition with ATM inhibitor combination [2]: Sensitivity to PARP inhibition was observed to increase with increasing concentrations of ATMI
sensitivity of ATM deficient cells compared to wild-type cells [4]: more sensitive

O=C(c1cc(Cc2n[nH]c(=O)c3ccccc23)ccc1F)N1CCCNCC1 [KU0058948]
sensitivity of FA gene deficient fibroblasts compared to wild-type cells [5]: results in sensitivity
sensitivity of Rad52 deficient ES cells compared to wild-type cells [6]: no more sensitive
sensitivity to PARP inhibition after BRCA1, BRCA2 and RAD51 silencing [7]: profound sensitivity
sensitivity of Brca1 mutant cells relative to KU0058684 [8]: even greater than that of KU0058684
sensitivity of Brca1 deficient cells compared to otherwise isogenic cells ([8]; clonogenic assay): extremely sensitive
sensitivity of Brca2 mutant cells relative to KU0058684 [9]: even greater than that of KU0058684
sensitivity of Brca2 deficient cells compared to otherwise isogenic cells ([9]; clonogenic assay): extremely sensitive
clonogenic survival of RAD51 siRNA transfected cells compared to control transfected cells [10]: significant reduction in the clonogenic survival
inhibition of tankyrase [11]: do not inhibit
inhibition of poly(ADP-ribose) polymerase activity of PARP-1 and PARP-2 [12]: potent and specific inhibitors
sensitivity of DSS1 and RPA siRNA transfected cells compared to control plasmid [13]: enhanced sensitivity
sensitivity of ATM, ATR, CHK1, CHK2 siRNA transfected HeLa cells compared to control plasmid [14]: increased sensitivity
inhibition of vault PARP [15]: do not inhibit
inhibition of PARP-3 [16]: do not inhibit
